Molecular target: Polymerase acidic protein (Influenza A virus (strain A/Puerto Rico/8/1934 H1N1), UniProt P03433)
Experiment: Inhibition of cap 1 ALMV primed Influenza transcriptase

Question: For `NC(=O)C(=O)CC(=O)C1CCCCC1`, which IC50 is on record?
Answer: > 500 µM

Question: `O=C(O)C(=O)CS(=O)(=O)c1ccccc1` was tested. Which IC50 did it give?
Answer: > 500 µM

Question: For `O=C(O)C(=O)Cc1cc2ccccc2o1`, which IC50 is on record?
Answer: > 500 µM

Question: `Cn1c(CC(=O)C(=O)O)nc2ccccc21` was tested. Which IC50 did it give?
Answer: > 500 µM

Question: How did the IC50 turn out when `O=C(O)C(=O)Cc1nc2ccccc2s1` was run?
Answer: > 500 µM

Reference: BindingDB's records for doi:10.1128/aac.38.12.2827 (Merck Research Laboratories, 1995)
